Source: patent US20120107275A1, “FUSED HETEROCYCLIC DERIVATIVES AND METHODS OF USE” (Amgen Inc., priority 2006, published 2012)

Tests used:
[1] = molecular target: T1, c-Met kinase domain (GST-cMet) (Homo sapiens, UniProt P08581); test: c-Met receptor assay (HTRF kinase assay with GST-cMet (P) enzyme, gastrin and ATP); assay type: biochemical; details: for Ki: illustrative activity values, HTRF kinase assay with GST-cMet (P) enzyme; for IC50: c-Met receptor assay
T1 construct: A PCR product covering residues 1058-1365 of c-Met (c-Met kinase domain); made in house; host or cells: High5 insect cells (baculovirus, BacToBac)
Protocol: Cloning, Expression and Purification of c-Met Kinase Domain
The PCR product is cloned into a modified pFastBac1 expression vector (harboring the gene for S. japonicum glutathione S-transferase immediately upstream of the multiple cloning site) using standard molecular biological techniques. The GST-c-Met kinase domain fusion (GST-Met) gene is transposed into full-length baculovirus DNA using the BacToBac™ system (Invitrogen). High5 cells are infected with the recombinant baculovirus for 72 h at 27° C. The infected cells are harvested by centrifugation and the pellet is stored at −80° C. The pellet is resuspended in buffer A (50 mM HEPES, pH 8.0, 0.25 M NaCl, 10 mM 2-mercaptoethanol, 10% (w/v) glycerol, 0.5% (v/v) protease inhibitor cocktail (Sigma P8340), stirred at 4° C. to homogeneity, and the cells are disrupted by microfluidization (Microfluidics) at 10,000 psi. The resulting lysate is centrifuged at 50,000×g for 90 min at 4° C., and the supernatant is adsorbed onto 10 mL of glutathione Sepharose™ 4B (Amersham) by batch method. The slurry is rocked gently overnight at 4° C. The glutathione resin is harvested by centrifugation and washed three times with 40 mL buffer A by batch method. The resin is washed three times with buffer B (buffer A adjusted to 0.1 M NaCl, less protease inhibitors). The protein is eluted with buffer B containing 25 mM reduced glutathione. Eluted fractions are analyzed by SDS-PAGE and concentrated to <10 mL (˜10 mg/mL total protein). The concentrated protein is separated by Superdex™ 200 (Amersham) size exclusion chromatography in buffer C (25 mM Tris, pH 7.5, 0.1 M NaCl, 10 mM 2-mercaptoethanol, 10% glycerol). The fractions are analyzed by SDS-PAGE and the appropriate fractions are pooled and concentrated to ˜1 mg/mL. The protein is aliquotted and stored at −80° C.
Alternative Purification of Human GST-cMET from Baculovirus Cells
The resin is washed with 10 column volumes (100 mL) of Lysis Buffer. […] The elution is collected as 15 mL fractions. Aliquots of the elution fractions are run on SDS PAGE (12% Tris Glycine gel, Invitrogen, #EC6005BOX). The gel is stained with 0.25% Coomassie Blue stain. Fractions with GST-cMET are concentrated with a Vivaspin 20 mL Concentrator (#VS2002; […]) to a final volume less than 2.0 ml. […] The GST-cMET is eluted with an isocratic run of the above buffer, with the eluent collected in 1.0 mL fractions. Fractions with significant OD280 readings are run on another 12% Tris Glycine gel. The peak tubes with GST-cMET are pooled and the OD280 is read with the column buffer listed above as the blank buffer.
Phosphorylation of the purified GST-cMET is performed by incubating the protein for 3 h at RT with the following:
After incubation, the solution is concentrated in a Vivaspin 20 ml Concentrator to a volume less than 2.00 ml. The solution is applied to the same Superdex 75 16/60 column used above after re-equilibration. The GST-cMET is eluted as described above. The elution fractions corresponding to the first eluted peak on the chromatogram are run on a 12% Tris Glycine gel, as above, to identify the fractions with GST-cMET. Fractions are pooled and the OD280 is read with the column buffer used as the blank.
A Kinase reaction Buffer is prepared as follows:
When the assay is carried out, freshly add:
The HTRF buffer contains:
1. […] 2. […] Then incubate the plate at RT for 30 min. 3.
Use Biomek FX to add 20 μl ATP and Gastrin working solution to the assay plate to start reaction, incubate the plate at RT for 1 h. 4.
KM ATP, KM gastrin for various enzymes were determined by HTRF/^33P labeling and HTRF methods.

c-Met [2] = molecular target: T2, c-Met (Mus musculus, UniProt P16056); test: c-Met cell-based autophosphorylation assay, CT26 cells (HGF stimulated, IGEN readout); details: HGF 250 ng/mL
T2 construct: host or cells: CT26 (mouse)
Protocol: (§1) c-Met Cell-Based Autophosphorylation Assay
(§2) Human PC3 and mouse CT26 cells are available obtained from ATCC. […] 2×10^4 cells in medium were plated per well in a 96 well plate and incubated at 37° C. overnight. The cells were serum-starved by replacing the growth media with basic medium (DMEM low glucose+0.1 BSA, 120 μL per well) at 37° C. for 16 h. […] Compound samples (2.4 μL per well) were diluted with basic medium (240 μL) in a 96 well plate. […] The cells were incubated at 37° C. for 1 h. A (2 mg/mL) solution of CHO-HGF (7.5 μL) was diluted with 30 mL basic medium to provide a final concentration of 500 ng/mL. This HGF-containing media (120 μL) was transferred to a 96 well plate. Compounds (1.2 μL) was added to the HGF-containing media and mixed well.
(§3) BSA/0.1% Tween20) by rotating for 30 min at RT. Antibody beads (25 μL) were transferred to a 96 well plate. Cell lysate solution (25 μL) was transferred added and the plate was shaken at RT for 1 h. […] 1×PBS (175 μL) was added to each well and the electrochemiluminescence was read by an IGEN M8. Raw data was analyzed using a 4-parameter fit equation in XLFit. IC50 values are then determined using Grafit software.

c-Met [3] = molecular target: T3, c-Met (Homo sapiens, UniProt P08581); test: c-Met cell-based autophosphorylation assay, PC3 cells (HGF stimulated, IGEN readout); details: HGF 250 ng/mL
T3 construct: host or cells: PC3 (human)
Protocol: as §1, §2, §3

T1 sequence (P08581 1058-1365): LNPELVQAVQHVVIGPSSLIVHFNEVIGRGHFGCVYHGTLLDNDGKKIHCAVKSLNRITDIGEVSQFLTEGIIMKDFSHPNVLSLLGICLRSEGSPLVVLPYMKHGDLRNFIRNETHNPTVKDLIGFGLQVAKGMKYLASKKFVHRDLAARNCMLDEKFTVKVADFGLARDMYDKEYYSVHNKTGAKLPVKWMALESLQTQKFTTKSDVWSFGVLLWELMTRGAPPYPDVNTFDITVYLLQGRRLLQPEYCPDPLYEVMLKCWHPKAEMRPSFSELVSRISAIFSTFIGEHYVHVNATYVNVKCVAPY
T3 sequence (P08581 25-1390): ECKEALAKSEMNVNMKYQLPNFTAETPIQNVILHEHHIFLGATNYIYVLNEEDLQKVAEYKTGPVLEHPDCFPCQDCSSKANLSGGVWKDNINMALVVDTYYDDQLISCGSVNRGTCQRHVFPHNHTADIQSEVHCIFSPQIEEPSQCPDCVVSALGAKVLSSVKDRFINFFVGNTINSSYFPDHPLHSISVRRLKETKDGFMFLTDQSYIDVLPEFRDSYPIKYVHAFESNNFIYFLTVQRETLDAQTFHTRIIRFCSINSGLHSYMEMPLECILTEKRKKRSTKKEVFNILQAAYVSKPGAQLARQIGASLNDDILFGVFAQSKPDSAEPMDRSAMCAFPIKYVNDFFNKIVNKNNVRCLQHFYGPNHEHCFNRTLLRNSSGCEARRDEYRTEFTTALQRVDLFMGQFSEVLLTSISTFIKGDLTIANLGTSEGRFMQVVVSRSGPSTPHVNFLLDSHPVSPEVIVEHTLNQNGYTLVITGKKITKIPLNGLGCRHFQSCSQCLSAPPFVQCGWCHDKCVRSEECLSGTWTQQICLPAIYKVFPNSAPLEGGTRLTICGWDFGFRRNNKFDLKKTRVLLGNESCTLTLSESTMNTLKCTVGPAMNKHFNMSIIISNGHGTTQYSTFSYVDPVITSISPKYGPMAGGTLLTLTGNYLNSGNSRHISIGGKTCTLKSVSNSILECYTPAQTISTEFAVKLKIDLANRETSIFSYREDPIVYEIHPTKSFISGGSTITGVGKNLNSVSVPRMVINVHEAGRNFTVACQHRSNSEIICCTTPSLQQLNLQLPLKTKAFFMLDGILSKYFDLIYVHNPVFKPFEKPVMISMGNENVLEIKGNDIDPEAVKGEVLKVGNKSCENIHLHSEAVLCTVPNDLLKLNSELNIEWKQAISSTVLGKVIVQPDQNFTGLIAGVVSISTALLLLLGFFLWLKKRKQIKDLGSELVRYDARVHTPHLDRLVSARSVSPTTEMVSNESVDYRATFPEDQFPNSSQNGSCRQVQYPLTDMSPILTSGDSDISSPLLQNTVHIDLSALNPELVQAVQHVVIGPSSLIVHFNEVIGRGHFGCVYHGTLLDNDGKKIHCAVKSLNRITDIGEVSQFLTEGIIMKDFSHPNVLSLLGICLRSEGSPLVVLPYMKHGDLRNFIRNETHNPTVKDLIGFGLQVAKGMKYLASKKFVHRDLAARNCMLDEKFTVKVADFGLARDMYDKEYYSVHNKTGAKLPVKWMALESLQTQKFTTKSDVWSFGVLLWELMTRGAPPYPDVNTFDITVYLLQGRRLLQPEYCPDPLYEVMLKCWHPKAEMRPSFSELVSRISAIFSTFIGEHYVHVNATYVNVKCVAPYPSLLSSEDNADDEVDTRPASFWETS
T2 sequence (P16056 25-1379): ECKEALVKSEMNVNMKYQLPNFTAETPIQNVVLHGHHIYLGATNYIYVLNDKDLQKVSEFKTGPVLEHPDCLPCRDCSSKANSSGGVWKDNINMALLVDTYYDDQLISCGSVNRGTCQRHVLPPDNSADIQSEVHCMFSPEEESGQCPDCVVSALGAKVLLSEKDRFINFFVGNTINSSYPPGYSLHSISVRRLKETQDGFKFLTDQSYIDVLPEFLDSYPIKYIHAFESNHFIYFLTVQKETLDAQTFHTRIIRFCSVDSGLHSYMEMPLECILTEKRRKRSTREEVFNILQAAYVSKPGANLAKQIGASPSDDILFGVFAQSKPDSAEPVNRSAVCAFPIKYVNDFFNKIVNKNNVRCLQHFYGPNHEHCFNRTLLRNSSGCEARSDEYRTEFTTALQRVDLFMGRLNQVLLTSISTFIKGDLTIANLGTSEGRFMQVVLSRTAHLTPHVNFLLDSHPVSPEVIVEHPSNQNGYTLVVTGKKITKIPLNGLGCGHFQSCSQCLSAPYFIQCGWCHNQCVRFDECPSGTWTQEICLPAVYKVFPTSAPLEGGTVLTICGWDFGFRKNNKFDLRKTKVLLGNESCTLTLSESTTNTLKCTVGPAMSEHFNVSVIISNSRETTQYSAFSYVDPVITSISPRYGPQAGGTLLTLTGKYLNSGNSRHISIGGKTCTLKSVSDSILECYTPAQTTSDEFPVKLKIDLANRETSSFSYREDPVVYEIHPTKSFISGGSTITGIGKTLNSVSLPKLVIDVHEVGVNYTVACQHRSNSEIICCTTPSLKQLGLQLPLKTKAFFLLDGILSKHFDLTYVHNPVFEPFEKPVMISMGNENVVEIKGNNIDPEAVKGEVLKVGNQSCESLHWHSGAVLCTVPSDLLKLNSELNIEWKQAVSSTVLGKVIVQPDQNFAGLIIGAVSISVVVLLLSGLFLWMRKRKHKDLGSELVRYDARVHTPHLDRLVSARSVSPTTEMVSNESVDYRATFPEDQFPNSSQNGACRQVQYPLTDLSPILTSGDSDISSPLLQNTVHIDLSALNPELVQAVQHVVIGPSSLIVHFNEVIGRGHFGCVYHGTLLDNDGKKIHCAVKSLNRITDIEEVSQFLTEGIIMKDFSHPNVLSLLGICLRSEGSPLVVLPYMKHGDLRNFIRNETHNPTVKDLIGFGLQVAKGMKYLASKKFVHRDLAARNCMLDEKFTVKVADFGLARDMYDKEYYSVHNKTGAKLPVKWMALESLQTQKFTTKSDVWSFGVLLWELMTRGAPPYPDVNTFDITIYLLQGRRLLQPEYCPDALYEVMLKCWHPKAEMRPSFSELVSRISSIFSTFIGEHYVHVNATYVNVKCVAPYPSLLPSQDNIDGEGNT

| SMILES | Ki [1] [nM] | IC50 [1] [nM] | IC50 (c-Met [2]) [nM] | IC50 (c-Met [3]) [nM] |
| --- | --- | --- | --- | --- |
| c1ccc(-c2ccc3nnc(Cc4ccc5c(c4)OCO5)n3n2)cc1 [Example 326] | 394 |  |  |  |
| Cc1cc(-c2cc(F)c3nnc([C@@H](C)n4ccc5ncc(-c6cnn(C)c6)cc5c4=O)n3c2)on1 [Example 527, 6-((R)-1-(8-fluoro-6-(3-methylisoxazol-5-yl)-[1,2,4]-triazolo[4,3-a]pyridin-3-yl)ethyl)-3-(1-methyl-1H-pyrazol-4-yl)-1,6-naphthyridin-5(6H)-one] | 0.3 |  |  |  |
| Cc1csc(-c2cc(F)c3nnc([C@@H](C)n4ccc5ncccc5c4=O)n3c2)c1 [Example 511, (R)-6-(1-(8-fluoro-6-(4-methylthiophen-2-yl)-[1,2,4]-triazolo[4,3-a]pyridin-3-yl)ethyl)-1,6-naphthyridin-5(6H)-one] | 0.5 |  |  |  |
| CNC(=O)c1ccc(-c2ccc3nnc(COc4ccnc5cc(OC)ccc45)n3n2)s1 [Example 30, 5-(3-((7-methoxyquinolin-4-yloxy)methyl)-[1,2,4]triazolo[4,3-b]pyridazin-6-yl)-N-methylthiophene-2-carboxamide] |  | < 500 |  |  |
| COc1cnc2c(NCc3nnc4ccc(-c5cc(CO)no5)nn34)ccnc2c1 [Example 37, (5-(3-((7-methoxy-1,5-naphthyridin-4-ylamino)methyl)-[1,2,4]triazolo[4,3-b]pyridazin-6-yl)isoxazol-3-yl)methanol] |  | < 500 | < 1000 | < 1000 |
| C[C@H](c1nnc2c(F)cc(-c3cnn(CCO)c3)cn12)n1ccc2ncccc2c1=O [Example 509, (R)-6-(1-(8-fluoro-6-(1-(2-hydroxyethyl)-1H-pyrazol-4-yl)-[1,2,4]triazolo[4,3-a]pyridin-3-yl)ethyl)-1,6-naphthyridin-5(6H)-one] | 3.2 |  |  |  |
| COc1ccc2c(OCc3nnc4ccc(-c5ccc(N(C)C)nc5)nn34)ccnc2c1 [Example 43, 5-(3-((7-methoxyquinolin-4-yloxy)methyl)-[1,2,4]triazolo[4,3-b]pyridazin-6-yl)-N,N-dimethylpyridin-2-amine] |  |  | < 1000 | < 1000 |
| c1ccc(-c2ccc3nnc(COc4ccnc5ccccc45)n3n2)cc1 [Example 2, 4-((6-phenyl-[1,2,4]triazolo[4,3-b]pyridazin-3-yl)methoxy)quinoline] |  |  | < 1000 | < 1000 |
| COc1cnc2c(NCc3nnc4ccc(-c5cc(C(=O)O)no5)nn34)ccnc2c1 [Example 36, 5-(3-((7-methoxy-1,5-naphthyridin-4-ylamino)methyl)-[1,2,4]triazolo[4,3-b]pyridazin-6-yl)isoxazole-3-carboxylic acid] |  | < 500 | < 1000 | < 1000 |
| Fc1cc(-c2ccccc2)cn2c(Cc3ccc4ncccc4c3)nnc12 [Example 437, 6-((8-fluoro-6-phenyl-[1,2,4]triazolo[4,3-a]pyridin-3-yl)methyl)quinoline] | 36.4 |  |  |  |
